Laboratory results as given in the NIST ThermoML archive (doi:10.1021/je101086r).

Experiment: xn = mol fraction of the nth substance listed
Conditions: Pycnometric method

CC1COC(=O)O1 (configuration not stated) [4-methyl-1,3-dioxolan-2-one] + O=C=O
Conditions	mass density [kg/m3]
313 K, 2000 kPa, Gas, x2 = 0.9953	47.6
313 K, 2000 kPa, Liquid, x2 = 0.2593	1170
313 K, 3000 kPa, Gas, x2 = 0.9895	73
313 K, 3000 kPa, Liquid, x2 = 0.3384	1170
313 K, 4000 kPa, Gas, x2 = 0.9864	97.2
313 K, 4000 kPa, Liquid, x2 = 0.4022	1160
313 K, 5000 kPa, Gas, x2 = 0.9894	136.8
313 K, 5000 kPa, Liquid, x2 = 0.4548	1164.8
313 K, 6000 kPa, Gas, x2 = 0.9963	170.5
313 K, 6000 kPa, Liquid, x2 = 0.4919	1156
313 K, 7000 kPa, Gas, x2 = 0.99	224.7
313 K, 7000 kPa, Liquid, x2 = 0.542	1141.4
313 K, 8000 kPa, Gas, x2 = 0.99	244
313 K, 8000 kPa, Liquid, x2 = 0.5706	1129.7
313 K, 9000 kPa, Gas, x2 = 0.9907	276.7
313 K, 9000 kPa, Liquid, x2 = 0.6169	1109.2
313 K, 10000 kPa, Gas, x2 = 0.9841	339.9
313 K, 10000 kPa, Liquid, x2 = 0.6579	1089.3
313 K, 11000 kPa, Gas, x2 = 0.9866	366.2
313 K, 11000 kPa, Liquid, x2 = 0.6915	1073
313 K, 12000 kPa, Gas, x2 = 0.9694	390.8
313 K, 12000 kPa, Liquid, x2 = 0.7279	1046.6
333 K, 3000 kPa, Gas, x2 = 0.9942	52
333 K, 3000 kPa, Liquid, x2 = 0.2425	1090.7
333 K, 4000 kPa, Gas, x2 = 0.9968	77.8
333 K, 4000 kPa, Liquid, x2 = 0.2787	1096.7
333 K, 5000 kPa, Gas, x2 = 0.9922	100.2
333 K, 5000 kPa, Liquid, x2 = 0.3272	1106.7
333 K, 6000 kPa, Gas, x2 = 0.9862	116.8
333 K, 6000 kPa, Liquid, x2 = 0.3723	1105.7
333 K, 7000 kPa, Gas, x2 = 0.9885	147.9
333 K, 7000 kPa, Liquid, x2 = 0.4079	1109.2
333 K, 8000 kPa, Gas, x2 = 0.9898	174.5
333 K, 8000 kPa, Liquid, x2 = 0.4512	1110.2
333 K, 9000 kPa, Gas, x2 = 0.984	199.6
333 K, 9000 kPa, Liquid, x2 = 0.4846	1102.2
333 K, 10000 kPa, Gas, x2 = 0.9855	230.2
333 K, 10000 kPa, Liquid, x2 = 0.5244	1091.2
333 K, 11000 kPa, Gas, x2 = 0.9812	271.3
333 K, 11000 kPa, Liquid, x2 = 0.5725	1077.1
333 K, 12000 kPa, Gas, x2 = 0.9888	326.5
333 K, 12000 kPa, Liquid, x2 = 0.6065	1061.1
333 K, 13000 kPa, Gas, x2 = 0.9883	411.2
333 K, 13000 kPa, Liquid, x2 = 0.6246	1052.5
353 K, 1000 kPa, Gas, x2 = 0.952	18.6
353 K, 1000 kPa, Liquid, x2 = 0.081	1011
353 K, 2000 kPa, Gas, x2 = 0.9663	32.2
353 K, 2000 kPa, Liquid, x2 = 0.115	1024.5
353 K, 3000 kPa, Gas, x2 = 0.9679	50.9
353 K, 3000 kPa, Liquid, x2 = 0.1518	1030
353 K, 4000 kPa, Gas, x2 = 0.9679	68.5
353 K, 4000 kPa, Liquid, x2 = 0.196	1040.8
353 K, 5000 kPa, Gas, x2 = 0.9591	84.4
353 K, 5000 kPa, Liquid, x2 = 0.2317	1044.3
353 K, 6000 kPa, Gas, x2 = 0.9866	100
353 K, 6000 kPa, Liquid, x2 = 0.2852	1054.8
353 K, 7000 kPa, Gas, x2 = 0.9836	115
353 K, 7000 kPa, Liquid, x2 = 0.3205	1062.4
353 K, 8000 kPa, Gas, x2 = 0.9922	164.5
353 K, 8000 kPa, Liquid, x2 = 0.351	1050
353 K, 9000 kPa, Gas, x2 = 0.9891	206
353 K, 9000 kPa, Liquid, x2 = 0.3881	1048.4
353 K, 10000 kPa, Gas, x2 = 0.9709	224.7
353 K, 10000 kPa, Liquid, x2 = 0.4112	1035.5
353 K, 11000 kPa, Gas, x2 = 0.9779	250
353 K, 11000 kPa, Liquid, x2 = 0.4485	997.5
353 K, 12000 kPa, Gas, x2 = 0.9719	300
353 K, 12000 kPa, Liquid, x2 = 0.492	970.4
353 K, 13000 kPa, Gas, x2 = 0.9842	320
353 K, 13000 kPa, Liquid, x2 = 0.5225	951.1
373 K, 3000 kPa, Gas, x2 = 0.9747	40
373 K, 3000 kPa, Liquid, x2 = 0.1384	1000
373 K, 4000 kPa, Gas, x2 = 0.9779	60.5
373 K, 4000 kPa, Liquid, x2 = 0.1638	1004.9
373 K, 5000 kPa, Gas, x2 = 0.98	82.7
373 K, 5000 kPa, Liquid, x2 = 0.2031	1005.4
373 K, 6000 kPa, Gas, x2 = 0.9802	95.9
373 K, 6000 kPa, Liquid, x2 = 0.2367	1011.5
373 K, 7000 kPa, Gas, x2 = 0.9784	125.9
373 K, 7000 kPa, Liquid, x2 = 0.2692	1000
373 K, 8000 kPa, Gas, x2 = 0.9795	149.8
373 K, 8000 kPa, Liquid, x2 = 0.2948	988.9
373 K, 9000 kPa, Gas, x2 = 0.9782	158
373 K, 9000 kPa, Liquid, x2 = 0.3268	980.9
373 K, 10000 kPa, Gas, x2 = 0.9847	181
373 K, 10000 kPa, Liquid, x2 = 0.3403	960.8
373 K, 11000 kPa, Gas, x2 = 0.9806	226.8
373 K, 11000 kPa, Liquid, x2 = 0.3805	940.7
373 K, 12000 kPa, Gas, x2 = 0.9848	241.7
373 K, 12000 kPa, Liquid, x2 = 0.39	935.1
373 K, 13000 kPa, Gas, x2 = 0.9844	264.9
373 K, 13000 kPa, Liquid, x2 = 0.4136	931.2

CCCC(=O)OCC [ethyl butanoate] + O=C=O
Conditions	mass density [kg/m3]
313 K, 2000 kPa, Gas, x2 = 0.9978	39.4
313 K, 2000 kPa, Liquid, x2 = 0.3795	919.1
313 K, 3000 kPa, Gas, x2 = 0.9926	61.3
313 K, 3000 kPa, Liquid, x2 = 0.4919	901
313 K, 4000 kPa, Gas, x2 = 0.9951	96.8
313 K, 4000 kPa, Liquid, x2 = 0.6053	867.6
313 K, 5000 kPa, Gas, x2 = 0.9938	141.2
313 K, 5000 kPa, Liquid, x2 = 0.7204	841.3
313 K, 6000 kPa, Gas, x2 = 0.9941	222.9
313 K, 6000 kPa, Liquid, x2 = 0.8124	813.8
313 K, 7000 kPa, Gas, x2 = 0.9888	300
313 K, 7000 kPa, Liquid, x2 = 0.8876	789.8
313 K, 8000 kPa, Gas, x2 = 0.9616	450
313 K, 8000 kPa, Liquid, x2 = 0.9495	744.8
333 K, 2000 kPa, Gas, x2 = 0.967	38.2
333 K, 2000 kPa, Liquid, x2 = 0.3088	801.5
333 K, 3000 kPa, Gas, x2 = 0.9751	57
333 K, 3000 kPa, Liquid, x2 = 0.3978	806.9
333 K, 4000 kPa, Gas, x2 = 0.9726	82.4
333 K, 4000 kPa, Liquid, x2 = 0.491	804.4
333 K, 5000 kPa, Gas, x2 = 0.9713	120.5
333 K, 5000 kPa, Liquid, x2 = 0.5707	786.8
333 K, 6000 kPa, Gas, x2 = 0.9709	164.2
333 K, 6000 kPa, Liquid, x2 = 0.6514	781.3
333 K, 7000 kPa, Gas, x2 = 0.9706	258.1
333 K, 7000 kPa, Liquid, x2 = 0.7285	752.2
333 K, 8000 kPa, Gas, x2 = 0.9716	298.4
333 K, 8000 kPa, Liquid, x2 = 0.8105	726.6
333 K, 9000 kPa, Gas, x2 = 0.9541	375.1
333 K, 9000 kPa, Liquid, x2 = 0.8711	692
333 K, 10000 kPa, Gas, x2 = 0.92	426.5
333 K, 10000 kPa, Liquid, x2 = 0.9039	670
353 K, 2000 kPa, Gas, x2 = 0.9121	34.5
353 K, 2000 kPa, Liquid, x2 = 0.2195	762.9
353 K, 3000 kPa, Gas, x2 = 0.9126	46.2
353 K, 3000 kPa, Liquid, x2 = 0.2919	764.7
353 K, 4000 kPa, Gas, x2 = 0.9151	68.5
353 K, 4000 kPa, Liquid, x2 = 0.356	765.8
353 K, 5000 kPa, Gas, x2 = 0.9166	106.5
353 K, 5000 kPa, Liquid, x2 = 0.4259	758.8
353 K, 6000 kPa, Gas, x2 = 0.9166	150.4
353 K, 6000 kPa, Liquid, x2 = 0.4863	753
353 K, 7000 kPa, Gas, x2 = 0.9189	215.9
353 K, 7000 kPa, Liquid, x2 = 0.5364	734.8
353 K, 8000 kPa, Gas, x2 = 0.9142	258
353 K, 8000 kPa, Liquid, x2 = 0.5983	719.6
353 K, 9000 kPa, Gas, x2 = 0.9127	308.3
353 K, 9000 kPa, Liquid, x2 = 0.6685	685.1
353 K, 10000 kPa, Gas, x2 = 0.91	331.7
353 K, 10000 kPa, Liquid, x2 = 0.7399	655.8
353 K, 11000 kPa, Gas, x2 = 0.89	375
353 K, 11000 kPa, Liquid, x2 = 0.8222	655.2
373 K, 2000 kPa, Gas, x2 = 0.867	30.6
373 K, 2000 kPa, Liquid, x2 = 0.18	627.3
373 K, 3000 kPa, Gas, x2 = 0.8751	45.1
373 K, 3000 kPa, Liquid, x2 = 0.2406	665.4
373 K, 4000 kPa, Gas, x2 = 0.8726	64.7
373 K, 4000 kPa, Liquid, x2 = 0.3086	675.5
373 K, 5000 kPa, Gas, x2 = 0.8713	96.5
373 K, 5000 kPa, Liquid, x2 = 0.3859	686.5
373 K, 6000 kPa, Gas, x2 = 0.8709	126.4
373 K, 6000 kPa, Liquid, x2 = 0.4129	675
373 K, 7000 kPa, Gas, x2 = 0.8706	171
373 K, 7000 kPa, Liquid, x2 = 0.4862	659.4
373 K, 8000 kPa, Gas, x2 = 0.8716	201.1
373 K, 8000 kPa, Liquid, x2 = 0.5222	647.4
373 K, 9000 kPa, Gas, x2 = 0.8766	233.2
373 K, 9000 kPa, Liquid, x2 = 0.5764	639.9
373 K, 10000 kPa, Gas, x2 = 0.856	259.8
373 K, 10000 kPa, Liquid, x2 = 0.6256	628.8
